Assay results from patent US20130060020A1, “Compounds useful for treating neurodegenerative disorders” (Satori Pharmaceuticals, Inc., priority 2011, published 2013).
Read-outs that look alike come from different tables or passages of the source.

What was measured:
Aβ 42 = assay: % 42 lowering and 40/42 selectivity after dosing in mg/kg (Table 5); type: in vivo
Aβ-42 = Aβ-42 MSD 3-plex ELISA, conditioned media of 2B7 cells; type: cell-based; details: Homo sapiens, 5 hours treatment
Protocol: (§1) Assays were conducted to determine the ability of a Compound of Formula I to modulate […], and Aβ-38.
(§2) Plates with capture antibodies were blocked for 1-2 hours at room temperature with 150 μL of the manufactures blocking reagent.
(§3) Cultured 2B7 cells in 96 well plate with 250 μL of media per well until confluent;
(§4) Prepared serial dilutions of compounds in DMSO at 100× the final desired concentration;
(§5) Washed wells with 2B7 cells 1× with 250 μL of media;
(§6) Diluted DMSO stocks 1:100 into media: • Added 250 μL of media containing compounds (1% DMSO) to wells with 2B7 cells for 5 hours at 37° C.
(§7) ELISA Sample Prep: • Diluted conditioned media: 1 part media with 1% DMSO and 1 part blocking buffer; • 150 μL of the 250 μL of conditioned media were used.
(§8) Prepared per manufacturer's protocol (see above). • Seven point standard curve samples were prepared that contained Aβ-42, Aβ-40, and Aβ-38. The highest concentration of Aβ-42 and Aβ-38 was 3,000 pg/mL and the highest concentration of Aβ-40 was 10,000 pg/mL. Subsequent serial dilutions were 1:3 and the final composition of each sample was 1 part blocking buffer and 1 part cell medium containing 1% DMSO.
(§9) Overnight Sample Incubation: • Blocked plates are washed 5× with MSD wash buffer with a plate washer; • […] and blocker G reagent in MSD blocking solution was added; • 25 μL of samples (1 part conditioned media containing 1% DMSO and 1 part MSD blocking buffer) were then added; • Plates were incubated overnight at 4 degrees C. or 2 hours at room temperature.
(§10) Final Wash and Readout: • Washed wells 5× with MSD wash buffer; • Added 150 μL 2×MSD read buffer; • Read with MSD imager.
(§11) Aβ peptide levels for each peptide were calculated from the standard curve using the MSD software provided with the MSD 2400 Imager. Percent vehicle values for each compound dosage were then calculated and fit to a 4 parameter curve generating IC50 values.
(§12) Conditioned media from 2B7 cells (Mayo) was collected after 5 hours of treatment and diluted with 1 volume of Meso Scale Discovery (MSD, Gaithersburg Md.) blocking buffer (1% BSA in MSD wash buffer). For total Aβ measurements, standard-bind, multi-array single spot 96 well MSD ELISA plates were coated with unlabeled 4G8 capture antibody (Covance, Princeton, N.J.) overnight at 4° C. and then blocked with 5% BSA in MSD wash buffer for 1 hour at room temperature with orbital shaking Diluted 2B7 conditioned media were added to the blocked in-house total Aβ MSD plates with SULFO-TAG 6E10 antibody (MSD). For Aβ38, 40 and 42 measurements, diluted 2B7 conditioned media were added to blocked human (6E10) Aβ 3-Plex plates (MSD). Total Aβ and Aβ 3-Plex plates were incubated for 2 hours at room temperature with orbital shaking followed by washing and reading according to the manufacturer's instructions (SECTOR® Imager 2400, MSD). Aβ concentrations were converted to percent vehicle values and used to construct dose response curves which were fitted to […] using GraphPad Prism version 5.00 for Windows, GraphPad Software, San Diego Calif. USA.

Aβ-38 = Aβ-38 MSD 3-plex ELISA, conditioned media of 2B7 cells; type: cell-based; details: Homo sapiens, 5 hours treatment, read-out: Aβ 38 IC50
Protocol: as §1, §2, §3, §4, §5, §6, §7, §8, §9, §10, §11, §12

Aβ-40 = Aβ-40 MSD 3-plex ELISA, conditioned media of 2B7 cells; type: cell-based; details: Homo sapiens, 5 hours treatment
Protocol: as §1, §2, §3, §4, §5, §6, §7, §8, §9, §10, §11, §12

[1] = inflection of dose response curve, read-out: Aβ 42 DR IC50 Inflection

Question: With CCO[C@@H]([C@H]1C[C@@H](C)[C@H]2[C@H](O1)[C@H](O)[C@@]1(C)[C@@H]3CC[C@H]4C(C)(C)[C@@H](O[C@H]5CN(C6CN(C7CCC7)C6)CCO5)CC[C@@]45C[C@@]35CC[C@]21C)C(C)(C)O [Compound I-13] as the compound, how does the “%42 lowering 10 hr” value (Aβ 42; 10 hr, 150 mg/kg) read?
Answer: D (% 42 lowering of 26-30%)

Question: What about the “%42 lowering 24 hr” value (Aβ 42; 150 mg/kg) of the same compound?
Answer: D (% 42 lowering of 26-30%)

Question: Which “%42 lowering 10 hr” value (Aβ 42; 10 hr, 100 mg/kg) does the source give for CCO[C@@H]([C@H]1C[C@@H](C)[C@H]2[C@H](O1)[C@H](O)[C@@]1(C)[C@@H]3CC[C@H]4C(C)(C)[C@@H](O[C@H]5CN(CC6CN(CCOC)C6)CCO5)CC[C@@]45C[C@@]35CC[C@]21C)C(C)(C)O [Compound I-20] here?
Answer: A^a (% 42 lowering of under 15%)

Question: Which results are given for CCO[C@@H]([C@H]1C[C@@H](C)[C@H]2[C@H](O1)[C@H](O)[C@@]1(C)[C@@H]3CC[C@H]4C(C)(C)[C@@H](O[C@H]5CN(C6CCN(CCOC)CC6)CCO5)CC[C@@]45C[C@@]35CC[C@]21C)C(C)(C)O [Compound I-28]?
Answer: IC50 (Aβ-42; [1]): 100 to 500 nM; IC50 (Aβ-42; read-out: Aβ 42 IC50): 100 to 500 nM; 40/42 selective 10 hr (Aβ 42; 10 hr, 100 mg/kg): F^a (10-15 fold selectivity); %42 lowering 10 hr (Aβ 42; 10 hr, 100 mg/kg): A^a (% 42 lowering of under 15%); IC50 (Aβ-38): 501 to 1000 nM

Question: For CCO[C@@H]([C@H]1C[C@@H](C)[C@H]2[C@H](O1)[C@H](O)[C@@]1(C)[C@@H]3CC[C@H]4C(C)(C)[C@@H](O[C@H]5CN(CC6CN(CC(C)(C)O)C6)CCO5)CC[C@@]45C[C@@]35CC[C@]21C)C(C)(C)O [Compound I-24], which “%42 lowering 10 hr” value (Aβ 42; 10 hr, 100 mg/kg) is on record?
Answer: A^a (% 42 lowering of under 15%)

Question: What about the “%42 lowering 24 hr” value (Aβ 42; 100 mg/kg) of the same compound?
Answer: C^a (% 42 lowering of 21-25%)

Question: For CCO[C@@H]([C@H]1C[C@@H](C)[C@H]2[C@H](O1)[C@H](O)[C@@]1(C)[C@@H]3CC[C@H]4C(C)(C)[C@@H](O[C@H]5CN(C6CN(C(C)(C)C)C6)CCO5)CC[C@@]45C[C@@]35CC[C@]21C)C(C)(C)O [Compound I-14], which IC50 (Aβ-40; read-out: Aβ 40 IC50) is on record?
Answer: 1000 to 5000 nM

Question: What about the IC50 (Aβ-42; [1]) of the same compound?
Answer: < 100 nM

Question: And the IC50 (Aβ-42; read-out: Aβ 42 IC50)?
Answer: < 100 nM

Question: What about the IC50 (Aβ-38) of the same compound?
Answer: 100 to 500 nM

Question: For CCO[C@@H]([C@H]1C[C@@H](C)[C@H]2[C@H](O1)[C@H](O)[C@@]1(C)[C@@H]3CC[C@H]4C(C)(C)[C@@H](O[C@H]5CN(CCN6CC(F)C6)CCO5)CC[C@@]45C[C@@]35CC[C@]21C)C(C)(C)O [Compound I-63], which IC50 (Aβ-40; inflection of dose response curve, read-out: Aβ 40 DR IC50 Inflection) is on record?
Answer: 1000 to 5000 nM

Question: And the IC50 (Aβ-40; read-out: Aβ 40 IC50)?
Answer: 1000 to 5000 nM

Question: What about the IC50 (Aβ-42; [1]) of the same compound?
Answer: 100 to 500 nM

Question: What about the IC50 (Aβ-42; read-out: Aβ 42 IC50) of the same compound?
Answer: 100 to 500 nM

Question: What about the IC50 (Aβ-38) of the same compound?
Answer: 501 to 1000 nM

Question: For CCO[C@@H]([C@H]1C[C@@H](C)[C@H]2[C@H](O1)[C@H](O)[C@@]1(C)[C@@H]3CC[C@H]4C(C)(C)[C@@H](O[C@H]5CN(C6CN(C(C)C)C6)CCO5)CC[C@@]45C[C@@]35CC[C@]21C)C(C)(C)O [Compound I-6], which “%42 lowering 10 hr” value (Aβ 42; 10 hr, 150 mg/kg) is on record?
Answer: C (% 42 lowering of 21-25%)

Question: What about the “%42 lowering 24 hr” value (Aβ 42; 100 mg/kg) of the same compound?
Answer: E^a (% 42 lowering of greater than 31%)

Question: With CCO[C@@H]([C@H]1C[C@@H](C)[C@H]2[C@H](O1)[C@H](O)[C@@]1(C)[C@@H]3CC[C@H]4C(C)(C)[C@@H](O[C@H]5CN(C6CN(CC(C)(C)C)C6)CCO5)CC[C@@]45C[C@@]35CC[C@]21C)C(C)(C)O [Compound I-16] as the compound, how does the IC50 (Aβ-40; read-out: Aβ 40 IC50) read?
Answer: 1000 to 5000 nM

Question: What about the IC50 (Aβ-42; [1]) of the same compound?
Answer: 100 to 500 nM

Question: What about the IC50 (Aβ-42; read-out: Aβ 42 IC50) of the same compound?
Answer: 100 to 500 nM

Question: What about the IC50 (Aβ-38) of the same compound?
Answer: 501 to 1000 nM

Question: Which results are given for CCO[C@@H]([C@H]1C[C@@H](C)[C@H]2[C@H](O1)[C@H](O)[C@@]1(C)[C@@H]3CC[C@H]4C(C)(C)[C@@H](O[C@H]5CN(C6(C)CN(C7CCC7)C6)CCO5)CC[C@@]45C[C@@]35CC[C@]21C)C(C)(C)O [Compound I-27]?
Answer: IC50 (Aβ-40; read-out: Aβ 40 IC50): 1000 to 5000 nM; IC50 (Aβ-42; [1]): < 100 nM; IC50 (Aβ-42; read-out: Aβ 42 IC50): 100 to 500 nM; IC50 (Aβ-38): 100 to 500 nM
